Legend:
[1] = target: T1, AnUGP (Aspergillus nidulans, UniProt C8VK50); assay: malachite green phosphate assay coupled to inorganic pyrophosphatase; type: biochemical; settings: 0.25 mM UTP, 0.25 mM Glc-1-P, 2 mM MgCl2, 100 mM NaCl, 50 mM Tris-HCl pH 7.5, 30 °C
T1 construct: gene ANIA_09148; homooctamer
T1 sequence (C8VK50 1-514): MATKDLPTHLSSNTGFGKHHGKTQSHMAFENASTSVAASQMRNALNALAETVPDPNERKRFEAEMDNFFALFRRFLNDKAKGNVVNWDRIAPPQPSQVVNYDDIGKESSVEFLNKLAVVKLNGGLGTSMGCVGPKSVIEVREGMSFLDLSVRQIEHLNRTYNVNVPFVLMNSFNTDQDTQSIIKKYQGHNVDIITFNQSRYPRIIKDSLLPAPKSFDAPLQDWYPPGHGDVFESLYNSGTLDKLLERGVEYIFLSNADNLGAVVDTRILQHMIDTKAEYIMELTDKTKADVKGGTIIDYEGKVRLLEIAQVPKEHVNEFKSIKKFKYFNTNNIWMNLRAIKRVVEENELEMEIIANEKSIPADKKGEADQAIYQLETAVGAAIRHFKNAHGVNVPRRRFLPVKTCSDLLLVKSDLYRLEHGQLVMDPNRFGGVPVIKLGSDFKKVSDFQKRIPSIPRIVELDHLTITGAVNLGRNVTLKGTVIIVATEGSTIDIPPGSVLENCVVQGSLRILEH

[2] = target: UDP-glucose pyrophosphorylase from Aspergillus nidulans (Aspergillus nidulans); assay: SEC; Superose 6 GL 10/300 in buffer A (50 mM Tris, 200 mM NaCl, 2 mM β-mercaptoethanol, pH 7.8); peak around 14.5 mL
[3] = target: UDP-glucose pyrophosphorylase from Aspergillus nidulans (Aspergillus nidulans); assay: cryo-EM structure; native AnUGP in buffer A at 0.18 mg/mL, vitrified on Quantifoil R1.2/1.3 grids; Titan Krios 300 kV; C1, D4 and locally refined maps; 3D variability analysis

| stoichiometry N [2] | stoichiometry N [3] | Molecule | malachite green phosphate assay coupled to inorganic pyrophosphatase [1] |
| --- | --- | --- | --- |
| – | – | O=c1ccn([C@@H]2O[C@H](COP(=O)(O)OP(=O)(O)OP(=O)(O)O)[C@@H](O)[C@H]2O)c(=O)[nH]1 [UTP] | the enzyme was specific for UTP and unable to use ATP or GTP |
| – | – | O=P(O)(O)O[C@H]1O[C@H](CO)[C@@H](O)[C@H](O)[C@H]1O [Glc-1-P] | AnUGP catalyzes the condensation reaction between UTP and Glc-1-P to produce UDP-Glc and PPi |
| 8 | 8 | UDP-glucose pyrophosphorylase from Aspergillus nidulans (enzyme) | – |

Reference: article PMC10470519, “CryoEM analysis of the essential native UDP-glucose pyrophosphorylase from Aspergillus nidulans reveals key conformations for activity regulation and function” (mBio, 2023)
